From patent US20180161400A1 (Emisphere Technologies, Inc., priority 2004, published 2018)
Where “and” joins values, the source holds several entries; their conditions need not be identical. Equal values may be shown once. Where a name gives a salt, the structure may show the parent alone.

Legend:
[1] = test system: people with Type 2 diabetes; details: cited from earlier work
[2] = in vivo; cited from earlier work
[3] = test system: Type 2 diabetics; details: cited from earlier work
[4] = test system: patients with impaired glucose tolerance; details: compared with placebo, over 2.8 years; cited from earlier work
[5] = test system: Sprague Dawley rats; experiment: Single oral gavage of insulin/4-CNAB/metformin solutions to fasted rats, blood glucose by hand-held glucometer; format: in vivo; details: for Percent Change in Glucose (from baseline), Mean / Blood Glucose, Mean: group mean n=5; for Percent Change in Glucose Compared to Carrier Alone, Mean: group mean; for Percent Change in Glucose Compared to Carrier Alone: individual rat vs vehicle group mean; for Percent Change in Glucose (from baseline) / Blood Glucose: individual rat
Protocol: These solutions were sonicated at 35° C. and the pH adjusted to 6.5-8.5 with sodium hydroxide.
Sprague Dawley rats were fasted overnight (16-24 h) and were divided into five groups for oral dosing (n=5 per group). Each rat received a single oral dose (by gavage) of dosing solution at a final dose volume of 1 mL/kg. […] The study also included a control group that received an oral dose of vehicle (water) alone. Blood samples were collected by the tail clip method at 0, 15, 30, 45, 60, 120, 180, 240 and 300 minutes and blood glucose was measured immediately using a hand-held glucometer.

[6] = cited from earlier work
[7] = cited from earlier work; remark: listed apart in the source
[8] = cited from earlier work; remark: listed apart in the source
[9] = 15 min, listed as Metformin (450)
[10] = 30 min, listed as Metformin (450)
[11] = 45 min, listed as Metformin (450)
[12] = 60 min, listed as Metformin (450)
[13] = 120 min, listed as Metformin (450)
[14] = 180 min, listed as Metformin (450)
[15] = 240 min, listed as Metformin (450)
[16] = 300 min, listed as Metformin (450)

In the case of `CCCNC(=O)NS(=O)(=O)c1ccc(Cl)cc1` [chlorpropamide], the average weight gain ([1]; UKPDS intensive therapy) is given as 2.6 kg.
For Glargine insulin: long-acting insulin, the duration of activity [2] is listed as 24 h and the peak effect [2] is listed as “no peak effect”.
In the case of `CN(C)C(=N)N=C(N)N` [Metformin, 1,1-Dimethylbiguanidine], the “reduction of raised plasma insulin levels” value ([3]; cases of metabolic syndrome) is given as at most 30%, the “lowering of A1c, average” value ([3]; human, in vivo) is given as 1.5% and the “lowering of fasting blood glucose levels, average” value ([3]; human, in vivo) is given as 25%. For the same molecule, the “lowering of postprandial blood glucose” value ([3]; human, in vivo) was “up to 44.5%”, the “reduction of the incidence of type 2 diabetes” value [4] was 31% and the “time of maximum decline in blood glucose” value ([5]; after oral administration) was “about 45 minutes”. The “Percent Change in Glucose (from baseline), Mean” value ([5]; 0 min) was 0.000%, the “Blood Glucose, Mean” value ([5]; 0 min (pre-dose baseline), label doses mg/kg oral) was 99.000 mg/dL and the “Percent Change in Glucose (from baseline), Mean” value ([5]; 15 min) was 2.053%. The “Blood Glucose, Mean” value ([5]; 15 min after single oral dose) was 101.200 mg/dL, the “Percent Change in Glucose (from baseline), Mean” value ([5]; 30 min) was −3.264% and the “Blood Glucose, Mean” value ([5]; 30 min after single oral dose) was 95.600 mg/dL. The “Percent Change in Glucose (from baseline), Mean” value ([5]; 45 min) was −13.716%, the “Blood Glucose, Mean” value ([5]; 45 min after single oral dose) was 85.200 mg/dL and the “Percent Change in Glucose (from baseline), Mean” value ([5]; 60 min) was −17.653%. The “Blood Glucose, Mean” value ([5]; 60 min after single oral dose) was 81.200 mg/dL, the “Percent Change in Glucose (from baseline), Mean” value ([5]; 120 min) was −35.050% and the “Blood Glucose, Mean” value ([5]; 120 min after single oral dose) was 63.800 mg/dL. The “Percent Change in Glucose (from baseline), Mean” value ([5]; 180 min) was −38.670%, the “Blood Glucose, Mean” value ([5]; 180 min after single oral dose) was 60.400 mg/dL and the “Percent Change in Glucose (from baseline), Mean” value ([5]; 240 min) was −40.832%. The “Blood Glucose, Mean” value ([5]; 240 min after single oral dose) was 58.200 mg/dL, the “Percent Change in Glucose (from baseline), Mean” value ([5]; 300 min) was −37.001% and the “Blood Glucose, Mean” value ([5]; 300 min after single oral dose) was 62.400 mg/dL. The “maximum decline in blood glucose from baseline” value ([5]; group mean percent change at the peak time stated in the text) was −40.832%, the “Percent Change in Glucose Compared to Carrier Alone, Mean” value (“Percent Change … to Carrier Alone, Mean” below) ([5]; 0 min) was 18.990% and the “Percent Change … to Carrier Alone, Mean” value ([5]; 15 min) was 4.521%. The “Percent Change … to Carrier Alone, Mean” value ([5]; 30 min) was 7.223%, the “Percent Change … to Carrier Alone, Mean” value ([5]; 45 min) was −0.770% and the “Percent Change … to Carrier Alone, Mean” value ([5]; 60 min) was 1.563%. For the same molecule, the “Percent Change … to Carrier Alone, Mean” value ([5]; 120 min) was −4.797%, the “Percent Change … to Carrier Alone, Mean” value ([5]; 180 min) was −9.824% and the “Percent Change … to Carrier Alone, Mean” value ([5]; 240 min) was −12.757%. The “Percent Change … to Carrier Alone, Mean” value ([5]; 300 min) was −2.733%, the “Percent Change in Glucose Compared to Carrier Alone” value ([5]; 0 min, listed as Metformin (450)) was 29.808% and 5.769% and 12.981% and 17.788% and 28.606% and the “Percent Change in Glucose Compared to Carrier Alone” value [5, 9] was −8.511% and 2.128% and 6.383% and 16.085%. The “Percent Change in Glucose Compared to Carrier Alone” value [5, 10] was −4.063% and 8.352% (2×) and 16.253%, the “Percent Change in Glucose Compared to Carrier Alone” value [5, 11] was −8.768% and 5.450% and −2.844% and 3.081% and the “Percent Change in Glucose Compared to Carrier Alone” value [5, 12] was −7.500% and 5.000% (2×) and 3.750%. The “Percent Change in Glucose Compared to Carrier Alone” value [5, 13] was −6.977% and 4.651% and −17.151% and 0.291%, the “Percent Change in Glucose Compared to Carrier Alone” value [5, 14] was −22.287% and −0.293% and −7.625% and −9.091% and the “Percent Change in Glucose Compared to Carrier Alone” value [5, 15] was −17.889% and −4.692% and −20.821% and −7.625%. For the same molecule, the “Percent Change in Glucose Compared to Carrier Alone” value [5, 16] was −6.752% and 9.325% and −34.084% and 20.579%, the “Percent Change in Glucose (from baseline)” value ([5]; 0 min) was 0.000% and the “Blood Glucose” value ([5]; 0 min (pre-dose baseline), label doses mg/kg oral, listed as Metformin (450)) was 108 mg/dL and 88 mg/dL and 94 mg/dL and 98 mg/dL and 107 mg/dL. The “Percent Change in Glucose (from baseline)” value [5, 9] was 4.630% and −2.273% and 2.128% and 2.041% and 3.738%, the “Blood Glucose” value ([5]; 15 min after single oral dose, label doses mg/kg, listed as Metformin (450)) was 113 mg/dL and 86 mg/dL and 96 mg/dL and 100 mg/dL and 111 mg/dL and the “Percent Change in Glucose (from baseline)” value [5, 10] was −9.259% and −3.409% and 2.128% and −2.041% and −3.738%. The “Blood Glucose” value ([5]; 30 min after single oral dose, label doses mg/kg, listed as Metformin (450)) was 98 mg/dL and 85 mg/dL and 96 mg/dL (2×) and 103 mg/dL, the “Percent Change in Glucose (from baseline)” value [5, 11] was −15.741% and −12.500% and −5.319% and −16.327% and −18.692% and the “Blood Glucose” value ([5]; 45 min after single oral dose, label doses mg/kg, listed as Metformin (450)) was 91 mg/dL and 77 mg/dL and 89 mg/dL and 82 mg/dL and 87 mg/dL. For the same molecule, the “Percent Change in Glucose (from baseline)” value [5, 12] was −25.000% and −15.909% and −10.638% and −14.286% and −22.430%, the “Blood Glucose” value ([5]; 60 min after single oral dose, label doses mg/kg, listed as Metformin (450)) was 81 mg/dL and 74 mg/dL and 84 mg/dL (2×) and 83 mg/dL and the “Percent Change in Glucose (from baseline)” value [5, 13] was −47.222% and −27.273% and −23.404% and −41.837% and −35.514%. For the same molecule, the “Blood Glucose” value ([5]; 120 min after single oral dose, label doses mg/kg, listed as Metformin (450)) was 57 mg/dL (2×) and 64 mg/dL and 72 mg/dL and 69 mg/dL, the “Percent Change in Glucose (from baseline)” value [5, 14] was −48.148% and −39.773% and −27.660% and −35.714% and −42.056% and the “Blood Glucose” value ([5]; 180 min after single oral dose, label doses mg/kg, listed as Metformin (450)) was 56 mg/dL and 53 mg/dL and 68 mg/dL and 63 mg/dL and 62 mg/dL. The “Percent Change in Glucose (from baseline)” value [5, 15] was −50.926% and −36.364% and −30.851% and −44.898% and −41.121%, the “Blood Glucose” value ([5]; 240 min after single oral dose, label doses mg/kg, listed as Metformin (450)) was 56 mg/dL (2×) and 65 mg/dL and 54 mg/dL and 63 mg/dL and the “Percent Change in Glucose (from baseline)” value [5, 16] was −35.185% and −34.091% and −27.660% and −58.163% and −29.907%. The “Blood Glucose” value ([5]; 300 min after single oral dose, label doses mg/kg, listed as Metformin (450)) was 70 mg/dL and 58 mg/dL and 68 mg/dL and 41 mg/dL and 75 mg/dL, the “non-absorbed fraction recovered in feces” value ([6]; after an oral dose) was 20-30% and the “maximum metformin plasma levels (Cmax)” value ([6]; controlled clinical trials, even at maximum doses) was at most 4000 ng/mL. For the same molecule, the “steady state plasma concentrations” value ([6]; usual doses and dosing schedules) was “less than 1 μg/mL”, the “decrease in heart attacks” value ([1]; 10 year UKPDS, Type 2 diabetes) was 39% and the “decrease in overall mortality” value ([1]; 10 year UKPDS, Type 2 diabetes) was 36%. For the same molecule, the “times less likely to cause lactic acidosis” value ([7]; compared with phenformin) was 20 times, the “Lactic acidosis occurrence, once in every ... of use” value ([7]; in vivo) was 30,000 person-years and the “mortality rate of lactic acidosis” value ([7]; in vivo) was “about 40%”.
In the case of `CN(C)C(=N)N=C(N)N` [Metformin hydrochloride], the “pH of a 1% aqueous solution” value [8] is given as 6.68.
